How the values were obtained:
[1] = system: full-length androgen receptor; assay: Western blot: degradation of full-length androgen receptor in CWR22RV1 cells; assay type: cell-based; settings: overnight
Outline: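 CWR22Rv1 cells (5×10^5 per well) seeded overnight in RPMI with 10% FBS at 37 °C, 5% CO2, then given fresh medium and compound at various concentrations overnight. Lysates analysed by Western blot for full-length AR and AR-V7, with GAPDH as loading control.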

CWR22RV1 cells = assay: Cytotoxicity assay (AlamarBlue, 72 hours); assay type: cell-based; settings: 72 hours treatment, concentration not given
Outline: (§1)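 CWR22Rv1 or VCaP cells in RPMI-1640 with 10% FBS were seeded at 1×10^4 cells/well. Next day they were treated with compound, test samples at 100, 10, 1 and 0.1 μM, giving 1% DMSO final. After 72 h, AlamarBlue was added for 4 h, fluorescence was read at Ex/Em 560/590 nm, and % cytotoxicity was calculated.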

VCaP cells = assay: Cytotoxicity assay (AlamarBlue, 72 hours); assay type: cell-based; settings: 72 hours treatment, concentration not given
Outline: as §1

[2] = system: CWR22Rv1 cells or VCaP cells; assay: Xenograft tumor growth in SCID mice; assay type: in vivo, Male SCID mice; settings: 5 or 30 mg/kg, IP, BID
Description: Mice: Male SCID mice (CB17/Icr-Prkdcscid/IcrIcoCrlBltw, 4-6 weeks old, purchased from BioLASCO Taiwan Co., Ilan, Taiwan.)
The cells were harvested when CWR22Rv1 cells or VCaP cells were cultured to exponential growth phase, and then the cells were washed twice with PBS. Then, for CWR22Rv1 cells, 5×10^6 cells were suspended in 100 μL PBS containing 33% Matrigel to form a cell suspension; for VCaP cells, 3×10^6 cells were suspended in 100 μL PBS containing 50% Matrigel to form a cell suspension cell suspension. Then, the above cell suspension was subcutaneously implanted into the right back of male SCID mice with a 25G needle.
After cell inoculation, when the average tumor volume reached […] or the tumor clearly began to grow, the mice were divided into a vehicle-treated group (n=4-8), 5 mg/kg Compound 1 treated group (n=4-8) and 30 mg/kg Compound 1 treatment group (n=4-8), and administered by intraperitoneal injection (IP), twice daily (BID). The vehicle was 10% N-methylpyrrolidone (NMP, N-Methyl-2-pyrrolidone) and 20% castor oil polyoxyethylene ether (Cremophor EL) in PBS buffer solution. Tumor volume and animal body weight were determined three times a week after dosing.
Tumor size was measured with a caliper and converted to tumor volume (cm^3; V) using the formula: V=0.5×[Length×(Width)^2]
Antitumor activity was expressed as tumor growth inhibition (TGI). […]

[3] = compound concentration 0.1 (unit not given)
[4] = compound concentration 1 (unit not given)
[5] = compound concentration 10 (unit not given)

Structure (SMILES)	Degradation ability for full-length androgen receptor (residual rate %) [1, 3]	Degradation ability for full-length androgen receptor (residual rate %) [1, 4]	Degradation ability for full-length androgen receptor (residual rate %) [1, 5]	Cytotoxicity, CWR22RV1 cells (cell viability %) (CWR22RV1 cells)	Cytotoxicity, VCaP cells (cell viability %) (VCaP cells)	Increase in tumor size compared to vehicle treatment [2]
Cc1ncsc1-c1ccc(CNC(=O)[C@@H]2C[C@H](O)CN2C(=O)[C@@H](NC(=O)COCCCCOc2ccc(C3CCN(C4=Nn5c(nnc5C(F)(F)F)CC4)CC3)cc2)C(C)(C)C)cc1 [Compound 1, (2S,4S)-1-((S)-3,3-dimethyl-2-(2-(4-(4-(1-(3-(trifluoromethyl)-7,8-dihydro-[1,2,4]triazolo[4,3-b]pyridazin-6-yl)piperidin-4-yl)phenoxy)butoxy)acetamido)butanoyl)-4-hydroxy-N-(4-(4-methylthiazol-5-yl)benzyl)pyrrolidine-2-carboxamide]	+ (60-80%: +)	+ (60-80%: +)	+++ (<40%: +++)	+++ (<40% : +++)	+++ (<40% : +++)	tends to slow down
CC1(C)C(NC(=O)c2ccc(C#CC3CCN(C4CCN(C(=O)CNc5cccc6c5C(=O)N(C5CCC(=O)NC5=O)C6=O)CC4)CC3)cc2)C(C)(C)C1OC1=Nn2c(nnc2C(F)(F)F)CC1 (stereo not shown) [Compound 52, 4-((1′-((2-(2,6-dioxopiperidin-3-yl)-1,3-dioxoisoindolin-4-yl)glycyl)-[1,4′-bipiperidin]-4-yl)ethynyl)-N-((1r,3r)-2,2,4,4-tetramethyl-3-((3-(trifluoromethyl)-7,8-dihydro-[1,2,4]triazolo[4,3-b]pyridazin-6-yl)oxy)cyclobutyl)benzamide]	− (>80%; −)	++ (40-60%: ++)	++ (40-60%: ++)	+++ (<40% : +++)	+++ (<40% : +++)	–
Cc1ncsc1-c1ccc(CNC(=O)[C@@H]2C[C@H](O)CN2C(=O)[C@@H](NC(=O)COCCCCOc2ccc(C(=O)NC3C(C)(C)C(Oc4ccc5nnc(C(F)(F)F)n5n4)C3(C)C)cc2)C(C)(C)C)cc1 (stereo partly shown) [Compound 53, 1-(3,3-dimethyl-2-(2-(4-(4-(((1r,3r)-2,2,4,4-tetramethyl-3-((3-(trifluoromethyl)-[1,2,4]triazolo[4,3-b]pyridazin-6-yl)oxy)cyclobutyl)carbamoyl)phenoxy)butoxy)acetamido)butanoyl)-4-hydroxy-N-(4-(4-methylthiazol-5-yl)benzyl)pyrrolidine-2-carboxamide]	− (>80%; −)	+++ (<40%: +++)	+++ (<40%: +++)	+++ (<40% : +++)	+++ (<40% : +++)	–

— patent publication US12152035B2, “Androgen receptor binding molecule and use thereof” (Industrial Technology Research Institute, priority 2020, dated 2024)
